# ChEMBL document CHEMBL3351321, “Target evaluation of deoxyhypusine synthase from Theileria parva the neglected animal parasite and its relationship to Plasmodium” (Bioorg Med Chem, 2014)
# How the values were obtained:
# [1] = test system: Plasmodium falciparum; assay: Antiplasmodial activity against Plasmodium falciparum 3D7 assessed as inhibition of parasite growth at 5 uM; format: functional
# [2] = test system: Theileria parva; assay: Inhibition of Theileria parva deoxyhypusine synthase expressed in Escherichia coli Rosetta cells assessed as reduction in deoxyhypusine level at 2 uM
Structure (SMILES),inhibition at 5 µM [1] [%],inhibition [2] [%]
CNCCCNc1ccnc2cc(Cl)ccc12,98,13
Fc1ccc2[nH]c3c(NCCCN4CCOCC4)ncnc3c2c1,98,23
O=[N+]([O-])c1ccc(C=NNc2nc3ccccc3[nH]2)cc1,99,56
